Laboratory results: patent US7666891B2, “Heterocyclic antiviral compounds” (Roche Palo Alto LLC, priority 2004, dated 2010)
Where two headings read alike, the source gives them in different places.

How the values were obtained:
[1] = Determination of pharmacokinetic parameters in rats after oral gavage; type: in vivo, rat; details: female rats; for AUC (area under concentration vs. time curve, 0–24 h): parent triazolone measured in plasma; for concentration at 2 h / concentration at 6 h: rat, plasma; for concentration at 2 h: read-out: Cp (2 h) plasma concentration; for concentration at 6 h: read-out: Cp (6 h) plasma concentration
Protocol: Intact female rats weighing 200-250 g were used. Groups of three or five rats were used for each dose level of an experimental compound and one rat was used as a vehicle control. Animals were allowed normal access to chow and water throughout the experiment. The test substance was formulated as an aqueous suspension containing hydroxypropyl cellulose, polysorbate 80 and benzyl alcohol adjusted to pH 3.5 with HCl or NaOH at a dose equivalent to (0.127 mmol) and was administered orally by gavage. A blood sample (0.3 mL) was collected from the treated rats at, 2, 4, 6 and 8 h from the orbital sinus and at 24 h by cardiac puncture. A sample of at least 0.3 mL of blood was withdrawn from the untreated animals 3 h after dosing. Potassium oxalate/NaF and lithium heparin were added to the samples which were stored on ice during sampling procedure. The samples were spun in a refrigerated centrifuge at […] as soon as possible and the plasma samples were stored −20° C. immediately after centrifugation and later transferred to a −80° C. freezer until analysis. Aliquots of plasma (0.05 mL) were mixed with 0.35 mL of an internal standard (and 0.05 mL of acetonitrile containing 0.1% formic acid. A set of calibration standards was prepared by mixing 0.05-mL aliquots of plasma from untreated rats with 0.05-mL aliquots of standard solution in acetonitrile containing 0.1% formic acid and 0.35-mL aliquots of the internal standard in acetonitrile containing 0.1% formic acid). Each plasma sample and calibration standard was vortexed thoroughly and then centrifuged (3000×g) at 4° C. for 20 min to precipitate the protein. Each supernatant from centrifugation was transferred into a separate injection vial for LC/MS/MS analysis.

| melting point [°C] | Structure (SMILES) | other results |
| --- | --- | --- |
| 145.8 to 149.5 | Cn1c(Cc2ccc(Cl)c(Oc3cc(Cl)cc(C#N)c3)c2F)nn(CO)c1=O [Compound I-1] |  |
| 136.6 to 141.9 | Cn1c(Cc2ccc(Cl)c(Oc3cc(Cl)cc(C#N)c3)c2F)nn(COC(=O)CCC(=O)O)c1=O [Compound I-2, Succinic acid mono-{3-[4-chloro-3-(3-chloro-5-cyano-phenoxy)-2-fluoro-benzyl]-4-methyl-5-oxo-4,5-dihydro-[1,2,4]triazol-1-ylmethyl}ester] |  |
| 158.9 to 162.2 | Cn1c(Cc2ccc(Cl)c(Oc3cc(C#N)cc(C#N)c3)c2F)nn(CO)c1=O [Compound I-3] |  |
| 141.6 to 143.3 | Cn1c(Cc2ccc(Cl)c(Oc3cc(C#N)cc(C#N)c3)c2F)nn(COC(=O)CCC(=O)O)c1=O [Compound I-4, Succinic acid mono-{3-[4-chloro-3-(3,5-dicyano-phenoxy)-2-fluoro-benzyl]-4-methyl-5-oxo-4,5-dihydro-[1,2,4]triazol-1-ylmethyl}ester] |  |
| 150.5 to 151.1 | Cn1c(Cc2ccc(Cl)c(Oc3cc(C#N)cc(C(F)F)c3)c2F)nn(COC(=O)CCC(=O)O)c1=O [Compound I-5, Succinic acid mono-{3-[4-chloro-3-(3-cyano-5-difluoromethyl-phenoxy)-2-fluoro-benzyl]-4-methyl-5-oxo-4,5-dihydro-[1,2,4]triazol-1-ylmethyl}ester] |  |
| 139.2 to 140.5 | Cc1ccc(Cc2nn(COC(=O)CCC(=O)O)c(=O)n2C)c(F)c1Oc1cc(C#N)cc(C(F)F)c1 [Compound I-7, Succinic acid mono-{3-[3-(3-cyano-5-difluoromethyl-phenoxy)-2-fluoro-4-methyl-benzyl]-4-methyl-5-oxo-4,5-dihydro-[1,2,4]triazol-1-ylmethyl}ester] |  |
| 156.7 to 158 | Cn1c(Cc2ccc(Br)c(Oc3cc(C#N)cc(C(F)F)c3)c2F)nn(COC(=O)CCC(=O)O)c1=O [Compound I-9, Succinic acid mono-{3-[4-bromo-3-(3-cyano-5-difluoromethyl-phenoxy)-2-fluoro-benzyl]-4-methyl-5-oxo-4,5-dihydro-[1,2,4]triazol-1-ylmethyl}ester] |  |
| 152.2 to 153.5 | CCc1ccc(Cc2nn(COC(=O)CCC(=O)O)c(=O)n2C)c(F)c1Oc1cc(C#N)cc(C(F)F)c1 [Compound I-11, succinic acid mono-{3-[3-(3-cyano-5-difluoromethyl-phenoxy)-4-ethyl-2-fluoro-benzyl]-4-methyl-5-oxo-4,5-dihydro-[1,2,4]triazol-1-ylmethyl}ester] |  |
|  | Cn1c(Cc2ccc(Cl)c(Oc3cc(C#N)cc(C(F)F)c3)c2F)n[nH]c1=O [parent] | AUC (area under concentration vs. time curve, 0–24 h) ([1]; dose 152 mg/kg (equimolar to I-5 200 mg/kg)): 68800 ng·h/mL; AUC (area under concentration vs. time curve, 0–24 h) ([1]; dose 530 mg/kg (equimolar to I-5 700 mg/kg)): 85400 ng·h/mL; concentration at 2 h ([1]; dose 152 mg/kg): 2740 ng/mL; concentration at 6 h ([1]; dose 152 mg/kg): 5020 ng/mL; concentration at 2 h ([1]; dose 530 mg/kg): 3180 ng/mL; concentration at 6 h ([1]; dose 530 mg/kg): 5970 ng/mL |
